# Legend:
# [1] = tested on: platelet aggregation; conditions: cited from earlier work
# [2] = tested on: blood vessels; conditions: cited from earlier work
# [3] = tested on: rat gastric secretion; assay: Effects of Prostaglandin Analogues on Gastric Secretion in the Rat (Test B); assay type: in vivo; conditions: pylorus-ligated rats, subcutaneous 1.5 mg/kg twice (total 3.0 mg/kg), 4 hours
# Description: B. Evaluation of the Effects of Prostaglandin Analogues on Gastric Secretion in the Rat
# A procedure based on that described by Lipmann (J. Pharm. Pharmacol., 21: 335 [1968]) was used to assess the influence of test compounds on gastric secretion. Rats of one sex weighing 150 to 200 g were randomly divided into groups of six animals each and fasted for 48 hours previously to the experiments, water being available ad libitum. The animals were anesthetized with ether, the abdomen was opened through a midline incision and the pylorus was ligated. Test compounds were diluted from stock solution so as to administer a dose of 1.5 mg/kg in a volume equivalent to 1 ml/kg. Subcutaneous injections were applied immediately after surgery and again 2 hours later, so that a total dose of 3.0 mg/kg was administered. Dilutions were made with phosphate buffer (pH 7.38), as recommended by Lee et al. (Prostaglandins 3: 29 [1973]), in order to insure adequate stability of drugs at the subcutaneous depot. […]
# Four hours after pyloric ligation the animals were killed with ether, the cardias ligated and stomachs removed. The volume of gastric secretion was measured and the contents centrifuged at 5000 rpm for 10 minutes. […]
# Volume and total acid values of the treated group were compared with those of the controls by the "Squared" test. Antisecretory activity was scored according to the following scale: […]
Molecule,inhibition of platelet aggregation [1],"destruction of platelet clumps ([1]; in vitro, clumps already induced to form)",dilation of blood vessels [2],"Activity Value, Test B - inhibition of rat gastric secretion (score of % decrease in acidity) [3]"
"CCCCC[C@H](O)/C=C/[C@@H]1[C@H]2C/C(=C/CCCC(=O)O)O[C@H]2C[C@H]1O [PGI2, (5Z)-9-deoxy-6, 9α-epoxy-Δ^5-prostaglandin F1α]",the most potent inhibitor of platelet clumping of all the prostaglandins discovered to date,destroys platelet clumps after they have been induced to form,dilates blood vessels dramatically,–
"Ethyl 5, 9β-Epoxy-11α,15-dihydroxy-16,20-methanoprost-13E-en-1-oate [TR-4973]",–,–,–,0 (<26)
"9-Deoxy-9a-Homo-6, 9α-epoxy-15S-hydroxyprost-13E-en-1-oic acid [TR-4921]",–,–,–,"2 (26-50, significant)"
